{"source": "patent US7361643B2", "about": "“Methods for inhibiting angiogenesis” (University of Puerto Rico, priority 2000, dated 2008)", "key": {"[1]": {"system": "bovine adrenal medullary microvascular endothelial cells", "assay": "Cell viability by trypan blue exclusion", "format": "cell-based", "conditions": "under tunicamycin exposure (0.5-5.0 μg/ml, 32 hours)", "protocol": "For proliferation assay, cells were trypsinized and counted in a hemacytometer. Viability of cells was determined by trypan blue (0.4% (v/v)) exclusion. Statistical analysis was carried out by StatView II software (Macintosh). Quantitation of cellular differentiation was carried out by observing under a Nikon AlphaShot inverted microscope, and counting the number of capillary lumen-like structures in five randomly selected fields per sample.\nProliferation and Differentiation of Capillary Endothelial Cells: 2.0×10^4 cells were seeded per well in 24-well clusters in 1 ml complete EMEM containing 10% (v/v) serum and allowed to grow for 72 hours. Media were removed and the cells were washed twice with phosphate-buffer saline, pH 7.4 (PBS). […] Cells were routinely monitored by light microscopy. For proliferation assay, cells were trypsinized and counted in a hemacytometer. Viability of cells was determined by trypan blue (0.4% (v/v)) exclusion. […] Quantitation of cellular differentiation was carried out by observing under a Nikon AlphaShot inverted microscope, and counting the number of capillary lumen-like structures in five randomly selected fields per sample. The results were expressed as percent of its corresponding control after normalization of cell numbers. […] After FacSort calibration, 3000 events were counted per sample. […]"}, "Factor VIII:C": {"system": "Factor VIII:C", "assay": "Factor VIII:C level by enzyme-linked immunoassay (ELISA)", "format": "cell-based, bovine", "conditions": "1 μg/ml tunicamycin", "protocol": "In conducting ELISA, 96-well microtiter EIA plates, available from Corning Inc., Corning, N.Y., were coated overnight at 4° C. with 50 μl mouse monoclonal anti-Factor VIII:C antibody (i.e., IgG1k which is commercially available from Molecular Biochemicals (previously known as “Boehringer-Mannheim”), Indianapolis, Ind. (diluted 1:500) in 100 mM sodium carbonate buffer, pH 9.2. Blank wells were coated similarly with 0.25 μg of bovine serum albumin (BSA). The plates were washed three times 50 μl each wash with 50 mM Tris-HCl, pH 7.5 containing 150 mM NaCl and 0.5% (v/v) Tween-20 (TBST), available from Bio-Rad Laboratories, Richmond, Calif. and incubated at 37° C. for one hour with 50 μl conditioned media or cell lysates. The cell lysates were obtained by incubating for 20 minutes with 1 ml of ice-cold 20 mM TRIS-HCL, pH 8.0 buffer containing 150 mM NaCl, 1% (v/v) NP-40 and 1 μg/ml aprotinin. At the end of the incubation, the plates were washed three times with TBST, as above, and incubated at 37° C. for another hour with 50 μl of 1:500 diluted monoclonal anti-Factor VIII:C antibody. […] The absorbance was read at approximately 405 nm after 30 minutes by using an EIA microplate reader, Model 2550 with a 405 nm filter, both available from Bio-Rad Laboratories, Richmond, Calif. […]"}, "[2]": {"system": "bovine adrenal medullary microvascular endothelial cells", "assay": "DNA laddering by agarose gel electrophoresis", "format": "cell-based", "conditions": "DNA from cells treated with 1 μg/ml tunicamycin for 32 hours"}}}
{"substance": "tunicamycin", "values": [{"measurement": "total adherent cells viable", "setting": "[1]", "value": "more than 70%"}, {"measurement": "time from which Factor VIII:C level started increasing", "setting": "Factor VIII:C", "value": "≥ 32", "unit": "h"}, {"measurement": "level of immunopositive Factor VIII:C versus controls", "setting": "Factor VIII:C; conditioned media and cell lysates", "value": "high level"}, {"measurement": "DNA laddering", "setting": "[2]", "value": "appearance of laddering"}]}
